We go through seven compounds from patent US11591300B2, “Oxazole containing compounds as activators of IDO1 and AhR” (The Brigham and Women's Hospital, Inc., priority 2017, dated 2023).

In series [1] the test system is MODE-K cells. Nature of the series: Relative transcript abundance of target genes in MODE-K cells conditioned with compounds. From the text: 4-ethoxymethylene-2-phenyl-2-oxazol-5-one, (referred to as oxazolone, FIG. 1A) has been widely utilized in models of contact hypersensitivity and when applied to the mucosa has been proposed to cause colitis through its properties as a hapten (Gorbachev and Fairchild 2001). However to date there is limited evidence for hapten-specific antibody production or responses following topical oxazolone sensitization or hapten modified autologous proteins or luminal antigens identified at mucosal sites (Singleton et al. 2016, Yanaba et al. 2008, Wirtz et al. 2007). […] It was then determined whether oxazolone could affect the expression of these transcripts in the intestinal epithelium in a cell intrinsic manner by directly stimulating an immortalized intestinal epithelial cell line (IEC) derived from mouse small intestine, MODE-K, with oxazolone.
To test this, a systematic in vitro system was devised to assess transcriptional and CD1d-restricted responses in IECs in response to stimulation with dietary OxC structures, including 2,4,5-trimethyl-2,5-dihydro-1,3-oxazole (referred to as TMO, FIG. 1A) found in coffee, peanuts, meats and utilized as a food additive, which lacks the 2-phenyl ring, 5-ketone, and 4-ethoxymethylene present in oxazolone (Vitzthum et al. 1975, Stoffesima et al. 1968, Lee et al. 1981, Chang et al. 1968, Ho and Hartman 1968).

For series [2], the system named is MODE-K cells. Nature of the series: CD1d-restricted IL-10 production in MODE-K:NKT cell hybridoma co-culture. Type of series: cell-based, mouse. The settings on record: for effect of the supplement on IEC responses to oxazolone (CD1d-restricted IL-10 production): tryptophan-deficient media, oxazolone stimulation.
For another series, the system named is IECs. Nature of the series: In vitro system to assess transcriptional and CD1d-restricted responses in IECs (FIG. 13 summary). It is filed as cell-based.
Another series concerns the target T1, AhR (Homo sapiens, UniProt P35869).
T1 sequence (P35869 11-848): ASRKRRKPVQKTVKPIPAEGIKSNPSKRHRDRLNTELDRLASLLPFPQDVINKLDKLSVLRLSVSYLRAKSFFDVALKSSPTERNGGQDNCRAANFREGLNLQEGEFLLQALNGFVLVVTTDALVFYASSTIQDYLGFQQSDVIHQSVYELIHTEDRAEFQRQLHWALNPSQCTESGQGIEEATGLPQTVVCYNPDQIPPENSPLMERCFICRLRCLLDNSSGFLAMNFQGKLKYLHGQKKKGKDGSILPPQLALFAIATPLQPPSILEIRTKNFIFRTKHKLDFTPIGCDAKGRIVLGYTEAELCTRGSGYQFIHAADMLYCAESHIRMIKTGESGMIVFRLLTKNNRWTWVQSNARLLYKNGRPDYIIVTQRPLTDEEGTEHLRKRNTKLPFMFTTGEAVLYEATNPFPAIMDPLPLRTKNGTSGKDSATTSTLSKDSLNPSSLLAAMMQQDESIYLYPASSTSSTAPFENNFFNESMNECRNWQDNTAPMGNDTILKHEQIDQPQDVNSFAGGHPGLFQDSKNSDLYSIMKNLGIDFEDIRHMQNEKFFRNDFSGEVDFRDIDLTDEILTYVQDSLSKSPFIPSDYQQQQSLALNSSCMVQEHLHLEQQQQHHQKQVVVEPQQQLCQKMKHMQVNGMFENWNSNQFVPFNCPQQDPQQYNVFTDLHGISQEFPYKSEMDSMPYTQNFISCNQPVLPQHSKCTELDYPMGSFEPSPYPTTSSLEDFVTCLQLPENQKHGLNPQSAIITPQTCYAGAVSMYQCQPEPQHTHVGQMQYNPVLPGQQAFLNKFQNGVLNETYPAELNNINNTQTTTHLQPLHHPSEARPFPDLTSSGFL
The settings on record: Wambaugh et al. 2014, Dierickx 2004; cited from earlier work.

Where [3] appears, read: MODE-K cells conditioned with compound, normalized to β-actin.
[4] abbreviates: supplement alone or in conjunction with TMC stimulation.

For `CC1CC(C)C(C)C1` (centres unmarked) [TMC, 1,2,4-trimethyl cyclopentane, reference compound], the Cyp1a1 transcripts result in the series with MODE-K cells [1] is on record as “did not elicit any transcriptional changes”. Moreover, the Mttp transcripts result in the series with MODE-K cells [1] (setting [3]) is “did not elicit any transcriptional changes”.

Consider `O=C(O)c1cc(=O)c2ccccc2[nH]1` [kyneurenic acid, reference compound], for which, in the series on MODE-K cells [2] (setting [4]), the “CD1d-restricted IL-10 production” value is listed as “had no effect”.

Turning to `COC(=O)c1csc(C(=O)c2c[nH]c3ccccc23)n1` [ITE, 2-(H-Indol-3-carbonyl)-4-thiazolecarboxylic acid methyl ester, reference compound], the Mttp transcripts result in the series on MODE-K cells [1] (setting [3]) was “did not modulate”. In the series on MODE-K cells [2] (MODE-K pre-conditioned with compound, loaded with α-GC, co-culture with 24.7 iNKT hybridoma), the “CD1d-restricted IL-10 production” value was “did not modulate”.

In the case of `Cn1cc(C[C@@H](N)C(=O)O)c2ccccc21` (racemic) [DL-methyl tryptophan, reference compound], in the series on MODE-K cells [2], the “effect of the supplement on IEC responses to oxazolone (CD1d-restricted IL-10 production)” value was “did not restore suppression”.

Consider `C=CC1(C)OC(=O)N(c2cc(Cl)cc(Cl)c2)C1=O` (centres unmarked) [vinclozolin], for which the Cyp1a1 transcripts entry with MODE-K cells [1] is “induced expression of these genes in vitro and in vivo”. The Ido1 transcripts entry in the series on MODE-K cells [1] (setting [3]) was “induced expression of these genes in vitro and in vivo”. Further, the “transcriptional and CD1d-restricted epithelial responses relative to oxazolone stimulation” value in the series with IECs is “phenocopied”. Besides, the AhR activation result on AhR is on record as “AhR activator”.

For the compound `CC1=NCCC1` [1-MP, 2-methyl-1-pyrroline, reference compound], the Cyp1a1 transcripts entry with MODE-K cells [1] is listed as “did not elicit any transcriptional changes”. Besides, the Mttp transcripts result in the series with MODE-K cells [1] (setting [3]) is “did not elicit any transcriptional changes”.

As to `N[C@@H](Cc1c[nH]c2ccccc12)C(=O)O` [L-Trp, L-tryptophan, reference compound], in the series with MODE-K cells [2] (setting [4]), the “CD1d-restricted IL-10 production” value is reported as “had no effect”. Besides, the “effect of the supplement on IEC responses to oxazolone (CD1d-restricted IL-10 production)” value in the series on MODE-K cells [2] is “restored IEC responses to oxazolone”.
